Several values for one entry are separate records, joined by “and”; a condition that tells them apart may be missing. Identical values can stand only once.
What was measured:
affected skin areas = experiment: Adverse side effects in clinical studies to date (topical application); format: in vivo, human
Description: Generally in the practice of the method of the invention, the composition is topically applied to the affected skin areas in a predetermined or as-needed regimen either at intervals by application of a lotion or the like, it generally being the case that gradual improvements is noted with each successive application.

[1] = system: patients with acne vulgaris and/or acneiform scars; experiment: Clinical study of 5% lipoic acid cream applied to the face, assessed by a dermatologist; format: in vivo, human
Description: The following examples are presented to further illustrate and explain the present invention and should not be taken as limiting in any regard. Unless otherwise indicated, all percentages are by weight. Lipoic acid was supplied by the Henkel Corporation and was placed into a lecithin-based oil-in-water cream at a level of 5% for use by acne patients. This composition was used in the studies unless otherwise indicated.
Eight patients with acne vulgaris and/or acneiform scars were evaluated and photographed at the beginning of the study. The patients were asked to cleanse their faces with Cetaphil™ lotion twice daily, and then to apply the test lipoic acid composition. Clinical evaluations were made every four weeks thereafter. Photographs were retaken at the end of twelve weeks, and five patients continued treatment for up to a year.
The following parameters were reported in clinical assessments by a dermatologist in the follow-up evaluations:
1. visibly apparent changes in erythema
2. visibly apparent changes in pore size

[2] = Skin penetration after topical application; format: in vivo; conditions: four hours after application to skin
Description: While not wishing to be bound to any theory, it is possible that lipoic acid is efficacious in the treatment of acne because it is both fat- and water-soluble and readily disperses in cell membranes and other cellular components. […] Because of its solubility, it is sometimes referred to as a universal antioxidant. It acts as a free radical scavenger and neutralizer, and prevents the cross-linking of cell membranes that is often seen in acne in its post-inflammatory phases. By the same token, LA modulation of free radicals and other oxidative species affects gene expression, including expression of nuclear factor κ-B (NF-κB), nitric oxide synthetase and other mediators at all stages of proinflammation and inflammation. Lipoic acid's alteration of lipid peroxidation, protein cross-linking, growth factor stimulation, and membrane permeability may explain its negative effect on the symptoms of acne.

[3] = 5% lipoic acid in lecithin-based oil-in-water cream, topical twice daily, one value per patient (Pt. #1-#8)

In the case of `O=C(O)CCCCC1CCSS1` (centres unmarked) [lipoic acid, 1,2-dithiolane-3-pentanoic acid], the adverse side effects (affected skin areas) is reported as “no adverse side effects”, the “improvement in two patients with severe atrophic acne scars” value ([1]; 5% cream, topical twice daily) is reported as 80% and the “improvement of atrophic scars, all patients with atrophic scars” value ([1]; 5% cream, topical twice daily) is reported as “improved”. The “change in pustules, papules, and comedones” value ([1]; 5% cream, within three to four weeks, benefits continued to increase over three to four months) was “marked decrease”, the “Erythema % Improvement” value [1, 3] was 80% (3×) and 50% (5×) and the “Pore Size % Improvement” value [1, 3] was 50% (3×) and 90% (5×). The “Scar Depth % Improvement” value [1, 3] was 50% (4×) and 80% (2×) and 70% (2×) and the “concentration in sebaceous gland tissue” value [2] was “high concentrations”.
